Reference: US20100056627A1, “PHARMACEUTICAL COMPOSITIONS OF ALKYL GALLATES” (priority 2006, published 2010)

What was measured:
[1] = system: clinical isolate MRSA; test: Oxacillin MIC against MRSA with concomitant octyl gallate and short-chain alkyl gallate (β-lactam sensitivity, ILSMR effect); type: cell-based, Staphylococcus aureus; details: for Concentration of octyl gallate for concomitant use necessary for obtaining oxacillin MIC not higher than 2 μg/mL, C100 / Concentration of octyl gallate for concomitant use necessary for obtaining oxacillin MIC not higher than 2 μg/mL, Range / Concentration of octyl gallate for concomitant use necessary for obtaining oxacillin MIC not higher than 2 μg/mL, C50: clinical isolate MRSA
[2] = system: influenza virus A/Aichi (H3N2); test: Virucidal activity against influenza virus A/Aichi (H3N2) (Table 16); details: for No of plaques: Table 16
[3] = system: Candida albicans ATCC 10231; test: Time required for killing mold, octyl gallate and propyl gallate (FIG. 2); type: cell-based; details: concomitant use of octyl gallate and propyl gallate, FIG. 2
Excerpt: FIG. 2 is a graph showing shortening of the time required for killing mold by the concomitant use of octyl gallate and propyl gallate against Candida albicans ATCC 10231.

[4] = system: herpes virus (HSV-1); test: Virucidal activity against HSV-1 (Tables 14, 15, FIG. 5); type: cell-based
[5] = system: influenza virus B/T/1/05; test: Time course of virucidal activity at 37° C., infectivity by plaque assay in MDCK cells (FIGS. 6 to 12); type: cell-based
Description: The experiments in FIGS. 7 to 12 were carried out at 37° C. The infectivity of viruses was determined using MDCK cells by the plaque assay method.
This virucidal activity of octyl gallate was reinforced by propyl gallate also against influenza virus A/Aichi (H3N2) in the same manner as above.

How did the “Concentration of octyl gallate for concomitant use necessary for obtaining oxacillin MIC not higher than 2 μg/mL, C100” value ([1]; Propyl gallate 12.5) turn out when CCCCCCCCOC(=O)c1cc(O)c(O)c(O)c1 [octyl gallate] was run?
Its value is over 12.5 mg/L.

What about the “Concentration of octyl gallate for concomitant use necessary for obtaining oxacillin MIC not higher than 2 μg/mL, Range” value ([1]; Propyl gallate 12.5) of the same compound?
The value was 6.25 to 12.5 mg/L.

And the “Concentration of octyl gallate for concomitant use necessary for obtaining oxacillin MIC not higher than 2 μg/mL, C50” value ([1]; Propyl gallate 25)?
The value was 3.13 mg/L.

And the “Concentration of octyl gallate for concomitant use necessary for obtaining oxacillin MIC not higher than 2 μg/mL, C100” value ([1]; Propyl gallate 25)?
The value was 6.25 mg/L.

And the “Concentration of octyl gallate for concomitant use necessary for obtaining oxacillin MIC not higher than 2 μg/mL, Range” value ([1]; Propyl gallate 25)?
Its value is 1.56 to 6.25 mg/L.

What about the “Concentration of octyl gallate for concomitant use necessary for obtaining oxacillin MIC not higher than 2 μg/mL, C50” value ([1]; short-chain alkyl gallate None) of the same compound?
The value was 25 mg/L.

And the “Concentration of octyl gallate for concomitant use necessary for obtaining oxacillin MIC not higher than 2 μg/mL, C100” value ([1]; short-chain alkyl gallate None)?
The value was 25 mg/L.

What about the “Concentration of octyl gallate for concomitant use necessary for obtaining oxacillin MIC not higher than 2 μg/mL, Range” value ([1]; short-chain alkyl gallate None) of the same compound?
Its value is 25 mg/L.

And the “octyl gallate concentration at which a decrease of the MIC value of oxacillin to MRSA occurs” value ([1]; in the coexistence of propyl gallate or isoamyl gallate)?
The value was 1.56 mg/L.

And the “Concentration of octyl gallate for concomitant use for oxacillin MIC of 2 μg/mL or lower, 100% of MRSA strains (C100)” value ([1]; isoamyl gallate coexisting at 25 μg/mL)?
The value was 1.56 mg/L.

What about the “Concentration of octyl gallate for concomitant use for oxacillin MIC of 2 μg/mL or lower, 100% of MRSA strains (C100)” value ([1]; propyl gallate coexisting at 25 μg/mL) of the same compound?
The value was 6.25 mg/L.

What about the “octyl gallate concentration at which an ILSMR effect was confirmed” value ([1]; several bacterial strains, oxacillin with octyl gallate) of the same compound?
The value was 12.5 µg/mL.

And the No of plaques ([2]; octyl gallate 20 mg/L, J1816 60 mg/L, NaCitrate 0.90%)?
Its No of plaques is 0.

What about the No of plaques ([2]; octyl gallate 20 mg/L, propyl gallate 300 mg/L, J1816 150 mg/L, NaCitrate 0.90%) of the same compound?
Its No of plaques is 0.

What about the No of plaques ([2]; octyl gallate 40 mg/L, J1816 20 mg/L, NaCitrate 0.90%) of the same compound?
The No of plaques was 0.

And the No of plaques ([2]; octyl gallate 40 mg/L, propyl gallate 300 mg/L, J1816 210 mg/L, NaCitrate 0.90%)?
Its No of plaques is 0.

What about the No of plaques ([2]; octyl gallate 60 mg/L, J1816 180 mg/L, NaCitrate 0.90%) of the same compound?
The No of plaques was 0.

What about the No of plaques ([2]; octyl gallate 60 mg/L, J1816 180 mg/L, NaCitrate not given) of the same compound?
The No of plaques was 0.

And the No of plaques ([2]; octyl gallate 60 mg/L, propyl gallate 300 mg/L, J1816 270 mg/L, NaCitrate 0.90%)?
Its No of plaques is 0.

And the No of plaques ([2]; octyl gallate 80 mg/L, J1816 240 mg/L, NaCitrate 0.90%)?
Its No of plaques is 0.

And the No of plaques ([2]; octyl gallate 80 mg/L, propyl gallate 300 mg/L, J1816 330 mg/L, NaCitrate 0.90%)?
The No of plaques was 0.

What about the No of plaques ([2]; octyl gallate 100 mg/L, J1816 300 mg/L, NaCitrate 0.90%) of the same compound?
Its No of plaques is 0.

What about the No of plaques ([2]; octyl gallate 100 mg/L, propyl gallate 300 mg/L, J1816 390 mg/L, NaCitrate 0.90%) of the same compound?
The No of plaques was 0.

What about the “virucidal activity of octyl gallate against influenza virus A/Aichi (H3N2)” value ([2]; with propyl gallate) of the same compound?
The value was “reinforced”.

And the “time required for killing mold” value [3]?
The value was “shortened to a large extent”.

And the No of plaques ([4]; Table 14, octyl gallate 10 mg/L, J1816 30 mg/L, Na3citrate 0.90%)?
Its No of plaques is 0.

And the No of plaques ([4]; Table 14, octyl gallate 10 mg/L, propyl gallate 300 mg/L, J1816 120 mg/L, Na3citrate 0.90%)?
Its No of plaques is 0.

And the No of plaques ([4]; Table 14, octyl gallate 20 mg/L, J1816 60 mg/L, Na3citrate 0.90%)?
Its No of plaques is 0.

And the No of plaques ([4]; Table 14, octyl gallate 20 mg/L, propyl gallate 300 mg/L, J1816 150 mg/L, Na3citrate 0.90%)?
Its No of plaques is 0.

What about the No of plaques ([4]; Table 14, octyl gallate 30 mg/L, J1816 90 mg/L, Na3citrate 0.90%) of the same compound?
The No of plaques was 0.

And the No of plaques ([4]; Table 14, octyl gallate 30 mg/L, propyl gallate 300 mg/L, J1816 180 mg/L, Na3citrate 0.90%)?
Its No of plaques is 0.

And the No of plaques ([4]; Table 14, octyl gallate 60 mg/L, J1816 180 mg/L, Na3citrate 0.90%)?
Its No of plaques is 0.

And the No of plaques ([4]; Table 14, octyl gallate 60 mg/L, J1816 180 mg/L, Na3citrate not given)?
Its No of plaques is 0.

What about the No of plaques ([4]; Table 14, octyl gallate 60 mg/L, propyl gallate 300 mg/L, J1816 270 mg/L, Na3citrate 0.90%) of the same compound?
Its No of plaques is 0.

What about the No of plaques ([4]; Table 14, octyl gallate 100 mg/L, J1816 300 mg/L, Na3citrate 0.90%) of the same compound?
The No of plaques was 0.

What about the No of plaques ([4]; Table 14, octyl gallate 100 mg/L, propyl gallate 300 mg/L, J1816 390 mg/L, Na3citrate 0.90%) of the same compound?
The No of plaques was 0.

And the No of plaques ([4]; Table 15, octyl gallate 10 mg/L, J1816 0, NaCitrate 0.90%)?
The No of plaques was 48.

And the No of plaques ([4]; Table 15, octyl gallate 10 mg/L, propyl gallate 300 mg/L, J1816 0, NaCitrate 0.90%)?
Its No of plaques is 11.

What about the No of plaques ([4]; Table 15, octyl gallate 20 mg/L, J1816 0, NaCitrate 0.90%) of the same compound?
The No of plaques was 0.

What about the No of plaques ([4]; Table 15, octyl gallate 20 mg/L, propyl gallate 300 mg/L, J1816 0, NaCitrate 0.90%) of the same compound?
Its No of plaques is 0.

What about the No of plaques ([4]; Table 15, octyl gallate 30 mg/L, J1816 0, NaCitrate 0.90%) of the same compound?
The No of plaques was 0.

What about the No of plaques ([4]; Table 15, octyl gallate 30 mg/L, propyl gallate 300 mg/L, J1816 0, NaCitrate 0.90%) of the same compound?
The No of plaques was 0.

And the No of plaques ([4]; Table 15, octyl gallate 60 mg/L, J1816 0, NaCitrate 0.90%)?
Its No of plaques is 0.

And the No of plaques ([4]; Table 15, octyl gallate 60 mg/L, propyl gallate 300 mg/L, J1816 0, NaCitrate 0.90%)?
Its No of plaques is 0.

And the No of plaques ([4]; Table 15, octyl gallate 100 mg/L, J1816 0, NaCitrate 0.90%)?
The No of plaques was 0.

And the No of plaques ([4]; Table 15, octyl gallate 100 mg/L, propyl gallate 300 mg/L, J1816 0, NaCitrate 0.90%)?
The No of plaques was 0.

And the “virucidal activity of octyl gallate against HSV-1” value ([4]; with 60 mg/L of propyl gallate, FIG. 5)?
The value was “marked reinforcement”.

And the “time required for killing viruses” value ([5]; concomitant use of octyl gallate and propyl gallate, FIG. 6)?
The value was “shortened to a large extent”.

What about the “virucidal activity of octyl gallate alone” value ([5]; influenza virus B/T/1/05, FIG. 7) of the same compound?
The value was “has a virucidal activity”.

What about the “time until the infectivity to cells is lost” value ([5]; octyl gallate 30 mg/L and propyl gallate 300 mg/L, 37° C., FIG. 12) of the same compound?
The value was at most 1 min.
